In ChEMBL document CHEMBL1147534, “Examination of the 1,4-disubstituted azetidinone ring system as a template for combretastatin A-4 conformationally restricted analogue design” (Bioorg Med Chem Lett, 2004):

What was measured:
[1] = test system: IMR-32; assay: In vitro cytotoxicity against human cancerous neuroblastoma cells (IMR-32); type: functional, cell-based
[2] = test system: DLD-1; assay: In vitro cytotoxicity against human colon adenocarcinoma (DLD-1) tumor cell line; type: functional, cell-based
[3] = test system: T98G; assay: In vitro cytotoxicity against human glioblastoma (T-98G) tumor cell line; type: functional, cell-based
[4] = test system: ACHN; assay: In vitro cytotoxicity against human renal adenocarcinoma (ACHN) tumor cell line; type: functional, cell-based
[5] = test system: MOLT-4; assay: In vitro cytotoxicity against human leukemia (MOLT-4) cell line; type: functional, cell-based
[6] = test system: HCT-116; assay: In vitro cytotoxicity against human colon carcinoma (HCT116) tumor cell line; type: functional, cell-based
[7] = test system: CHO-K1; assay: In vitro cytotoxicity against chinese hamster ovary (CHO-K1) tumor cell line; type: functional, cell-based, Cricetulus griseus
[8] = test system: MCF7; assay: In vitro cytotoxicity against human breast carcinoma (MCF-7) tumor cell line; type: functional, cell-based
[9] = test system: DU-145; assay: In vitro cytotoxicity against human Prostate carcinoma (DU145) tumor cell line; type: functional, cell-based
[10] = test system: CFPAC-1; assay: In vitro cytotoxicity against human pancreatic cancer (CFPAC-1) tumor cell line; type: functional, cell-based
[11] = test system: NCI-H460; assay: In vitro cytotoxicity against human lung carcinoma (NCI-H460) tumor cell line; type: functional, cell-based
[12] = test system: AR-42J cell line; assay: In vitro cytotoxicity against rat pancreatic (AR-42J) tumor cell line; type: functional, cell-based
[13] = test system: HeLa; assay: In vitro cytotoxicity against human cervix adenocarcinoma (HeLa) tumor cell line; type: functional, cell-based
[14] = test system: MCF7; assay: In vitro cytotoxicity against human cancerous cells (MCF-7) was determined; type: functional, cell-based
[15] = test system: NCI-H69; assay: In vitro cytotoxicity against human cancerous cells (NCI-H69) was determined; type: functional, cell-based

Structure (SMILES)	IC50 ([1]; Homo sapiens, IMR-32)	IC50 [2]	IC50 [3]	IC50 [4]	IC50 [5]	IC50 [6]	IC50 ([7]; Cricetulus griseus, CHO-K1)	IC50 [8]	IC50 [9]	IC50 [10]	IC50 [11]	IC50 [12]	IC50 [13]	other results
COc1ccc2cc(C3C(OC(C)=O)C(=O)N3c3cc(OC)c(OC)c(OC)c3)ccc2c1 (configuration not stated)	> 1 µM													
COc1ccc2cc(C3C(O)C(=O)N3c3cc(OC)c(OC)c(OC)c3)ccc2c1 (configuration not stated)	0.089 µM													
COc1ccc(C2C(OC)C(=O)N2c2cc(OC)c(OC)c(OC)c2)cc1N (configuration not stated)	> 1 µM													
COc1cc(N2C(=O)C(OC)C2c2ccc3c(c2)OCO3)cc(OC)c1OC (configuration not stated)	> 1 µM													
COc1cc(C2C(OC(C)=O)C(=O)N2c2ccc3c(c2)OCO3)cc(OC)c1OC (configuration not stated)		> 10 µM	> 10 µM	> 10 µM	> 10 µM	> 10 µM	> 10 µM	> 10 µM	> 10 µM	> 10 µM	> 10 µM	> 10 µM	> 10 µM	IC50 ([1]; imr-32): > 10 µM
COc1cc(C2C(O)C(=O)N2c2ccc3c(c2)OCO3)cc(OC)c1OC (configuration not stated)	> 1 µM													
COc1ccc(C2C(O)C(=O)N2c2cc(OC)c(OC)c(OC)c2)cc1[N+](=O)[O-] (configuration not stated)	0.038 µM	0.0591 µM	0.0498 µM	0.0292 µM	0.074 µM	0.0688 µM	0.236 µM	0.0371 µM	0.0919 µM	0.0421 µM	0.425 µM	0.211 µM	0.04 µM	IC50 ([1]; imr-32): 0.0414 µM; IC50 ([7]; cho-k1): 0.416 µM; IC50 [14]: 0.097 µM; IC50 [15]: 0.074 µM
COc1ccc(C2C(O)C(=O)N2c2cc(OC)c(OC)c(OC)c2)cc1N (configuration not stated)	0.037 µM	0.13 µM	0.109 µM	0.0912 µM	0.0717 µM	0.14 µM	0.543 µM	0.055 µM	0.38 µM	0.0502 µM	0.184 µM	0.0621 µM	0.0639 µM	IC50 ([1]; imr-32): 0.0383 µM; IC50 ([7]; cho-k1): 0.411 µM; IC50 [14]: 0.081 µM; IC50 [15]: 0.025 µM
COc1cc(N2C(=O)C(OC(C)=O)C2c2ccc(N)o2)cc(OC)c1OC (configuration not stated)	> 1 µM													
COc1ccc(N2C(=O)C(O)C2c2cc(OC)c(OC)c(OC)c2)cc1 (configuration not stated)	> 1 µM													
COc1cc(N2C(=O)C(OC(C)=O)C2c2ccc3c(c2)OCO3)cc(OC)c1OC (configuration not stated)	0.91 µM													
COc1ccc(N2C(=O)C(OC(C)=O)C2c2cc(OC)c(OC)c(OC)c2)cc1 (configuration not stated)	> 1 µM													
COc1ccc(C2C(OC(C)=O)C(=O)N2c2cc(OC)c(OC)c(OC)c2)cn1 (configuration not stated)	> 1 µM													
COc1cc(N2C(=O)C(OC(C)=O)C2c2ccc([N+](=O)[O-])o2)cc(OC)c1OC (configuration not stated)	0.811 µM													
COc1ccc(C2C(O)C(=O)N2c2cc(OC)c(OC)c(OC)c2)cn1 (configuration not stated)	> 1 µM													
COc1ccc(C2C(OC(C)=O)C(=O)N2c2cc(OC)c(OC)c(OC)c2)cc1[N+](=O)[O-] (configuration not stated)	0.123 µM	0.326 µM	0.144 µM	0.595 µM	0.35 µM	0.526 µM	0.473 µM	0.105 µM	0.479 µM	0.197 µM	0.393 µM	0.582 µM	0.202 µM	
COc1ccc(C2C(OC)C(=O)N2c2cc(OC)c(OC)c(OC)c2)cc1[N+](=O)[O-] (configuration not stated)		> 10 µM	> 5 µM	> 10 µM	> 10 µM	> 10 µM	> 10 µM	> 10 µM	> 10 µM	> 10 µM	> 10 µM	> 10 µM	> 10 µM	IC50 ([1]; imr-32): > 10 µM
COc1cc(N2C(=O)C(OC(C)=O)C2c2ccc(N(C)C)cc2)cc(OC)c1OC (configuration not stated)	0.52 µM													
COc1cc(N2C(=O)C(O)C2c2ccc3c(c2)OCO3)cc(OC)c1OC (configuration not stated)	0.473 µM	0.905 µM	0.8 µM	2.12 µM	0.398 µM	0.95 µM	0.891 µM	0.544 µM	3.16 µM	0.885 µM	1.44 µM	1.48 µM	0.546 µM	IC50 ([1]; imr-32): 0.445 µM
COc1ccc(C2C(O)C(=O)N2c2cc(OC)c(OC)c(OC)c2)cc1 (configuration not stated)	0.033 µM						0.509 µM							IC50 [14]: 0.062 µM; IC50 [15]: 0.047 µM
COc1ccc(C2C(OC(C)=O)C(=O)N2c2cc(OC)c(OC)c(OC)c2)cc1N (configuration not stated)	0.0731 µM	0.394 µM	0.145 µM	0.15 µM	0.372 µM	0.368 µM	0.462 µM	0.0705 µM	0.43 µM	0.204 µM	0.449 µM	0.219 µM	0.262 µM	IC50 ([7]; cho-k1): 0.509 µM; IC50 [14]: 0.2 µM; IC50 [15]: 0.041 µM
COc1cc(N2C(=O)C(O)C2c2ccc([N+](=O)[O-])o2)cc(OC)c1OC (configuration not stated)	> 1 µM													
COc1ccc(C2C(OC(C)=O)C(=O)N2c2cc(OC)c(OC)c(OC)c2)cc1 (configuration not stated)	0.251 µM													
